{"source": "patent US9182350B2", "about": "“Naphthalene-based two-photon fluorescent probes, preparation method and use thereof” (DALIAN UNIVERSITY OF TECHNOLOGY, priority 2012, dated 2015)", "key": {"HeLa cells": {"tested_on": "HeLa cells", "test": "Two-photon fluorescence labeling of cancer cells", "type": "cell-based", "details": "4 μL probe-DMSO solution (4 μM), 60 min, 5% CO2, 37° C., PBS wash", "protocol": "(§1) FIG. 2 is the two-photon fluorescent imaging of fluorescent probe compound A1 in the tumor cells and non-tumor cells in example 2. Hela cells and HEK293 cells were incubated with 4 μL of A1-DMSO (4.0 μM) for 60 min in 5% CO2 at 37° C. The representative areas were selected and imaged with oil-immersion objective lens (100×). The resulting images are representative of replicate experiments (n=3). The images were recorded with the emission in the range of 500-550 nm. FIG. 2 (a) is confocal image of Hela cell, FIG. 2 (b) is confocal image of HEK293 cell.\n(§2) FIG. 10 is two-photon fluorescent imaging of fluorescent probe compound A2 in the tumor cells and non-tumor cells in example 14. […] The images of FIG. 10 (a1) and (b1) were recorded with the emission in the range of 500-550 nm. The images of FIG. 10 (a2) and (b2) were recorded with the emission in the range of 570-650 nm.\n(§3) Compound A1 was used, which was synthesized in the example 1. […] The fluorescence imaging was obtained with a two-photon spectral confocal multiphoton microscope. […] The images were recorded with the emission in the range of 500-550 nm.\n(§4) Compound A5 was used, which was synthesized in the example 13. […] The fluorescence imaging was obtained with a two-photon spectral confocal multiphoton microscope. […] The images of FIG. 10(a1) and FIG. 10(b1) were recorded with the emission in the range of 500-550 nm. […]"}, "HEK 293 cells": {"tested_on": "HEK 293 cells", "test": "Two-photon fluorescence labeling of non-cancer cells", "type": "cell-based", "details": "4 μL probe-DMSO solution (4 μM), 60 min, 5% CO2, 37° C., PBS wash", "protocol": "as §1, §2, §3, §4"}, "[1]": {"test": "Water solubility experiment (absorbance vs concentration at maximum absorption wavelength)", "from_the_text": "(§8) The absorbance of different concentrations of compound A2 solution at maximum absorption wavelength was detected. The results are representative value from replicate experiments (n=3).\n(§9) The absorbance of different concentrations of compound A4 solution at maximum absorption wavelength was detected. The results are representative value from replicate experiments (n=3).\n(§10) The experiment instrument is Agilent 8453 U-V spectrophotometer."}, "[2]": {"tested_on": "non-tumor tissue sections of mice' lungs", "test": "Two-photon fluorescence labeling of non-tumor tissue sections", "details": "sections soaked in probe PBS solution (10 μM), 30 min", "protocol": "(§5) FIG. 8 is the two-photon fluorescent imaging of fluorescent probe compound A4 for the tumor tissues and non-tumor tissues of mice' lungs in example 11. The sections of tumor tissues and non-tumor tissues of mice' lungs were incubated with 4 μL of A4 (10.0 μM). The representative areas were selected and imaged with oil-immersion objective lens (100×). The resulting images are representative of replicate experiments (n=3). FIG. 8 (a1) and (a2) are the confocal images of tumor tissue sections of mice' lungs after adding probe A4, FIG. 8 (b1) and (b2) are the confocal images of non-tumor tissue sections of mice' lungs after adding probe A4. The images of FIG. 8 (a1) and (b1) were recorded with the emission in the range of 500-550 nm. The images of FIG. 8 (a2) and (b2) were recorded with the emission in the range of 570-650 nm.\n(§6) FIG. 11 is two-photon fluorescent imaging of fluorescent probe compound A5 for the tumor tissues and non-tumor tissues of mice' lungs in example 15. The sections of tumor tissues and non-tumor tissues of mice' lungs were incubated with 4 μL of […] (10.0 μM). The representative areas were selected and imaged with oil-immersion objective lens (100×). […] The images of FIG. 11 (a1) and (b1) were recorded with the emission in the range of 500-550 nm. The images of FIG. 11 (a2) and (b2) were recorded with the emission in the range of 570-650 nm.\n(§7) Tumor tissue sections and non-tumor tissues sections of mice' lungs were soaked in the compound A2 PBS solution (10 μM), respectively. After 30 min, take out the section, mounting, safekeeping, the fluorescence images were obtained by two-photon spectral confocal multiphoton microscope. […] The images were recorded with the emission in the range of 500-550 nm.\nas §7, with “A4” for “A2”, “nm. […]” for “nm.”"}, "[3]": {"tested_on": "tumor tissue sections of mice' lungs", "test": "Two-photon fluorescence labeling of tumor tissue sections", "details": "sections soaked in probe PBS solution (10 μM), 30 min", "protocol": "as §5, §6, §7\nas §7, with “A4” for “A2”, “nm. […]” for “nm.”"}, "physchem": {"test": "physchem", "details": "water", "from_the_text": "as §8, §9, §10"}}, "data": [{"smiles": "COc1ccc2c(c1)c(CC(=O)NCCCCCCNc1ccc3c4c(cccc14)C(=O)N(C)C3=O)c(C)n2C(=O)c1ccc(Cl)cc1", "note": "[Compound A1]", "values": [{"measurement": "fluorescence signal in HeLa cells (two-photon confocal imaging)", "setting": "HeLa cells", "value": "strong fluorescence signals"}, {"measurement": "fluorescence signal in HEK 293 cells (two-photon confocal imaging)", "setting": "HEK 293 cells", "value": "no any fluorescence signal"}]}, {"smiles": "COc1ccc2c(c1)c(CC(=O)NCCCCCCNc1ccc3c4c1cccc4c(=O)n1c4ccccc4nc31)c(C)n2C(=O)c1ccc(Cl)cc1", "note": "[Compound A2]", "values": [{"measurement": "solubility", "setting": "[1]", "value": 5, "unit": "µM"}, {"measurement": "fluorescence signal in non-tumor tissue sections of mice' lungs (two-photon confocal imaging)", "setting": "[2]", "value": "no any fluorescence signals"}, {"measurement": "fluorescence signal in tumor tissue sections of mice' lungs (two-photon confocal imaging)", "setting": "[3]", "value": "strong fluorescence signals"}]}, {"smiles": "COc1ccc2c(c1)c(CC(=O)NCCCCCCNc1ccc3c4c(cccc14)-c1nc4ccccc4nc1-3)c(C)n2C(=O)c1ccc(Cl)cc1", "note": "[Compound A4]", "values": [{"measurement": "fluorescence signal in non-tumor tissue sections of mice' lungs (two-photon confocal imaging)", "setting": "[2]", "value": "no any fluorescence signals"}, {"measurement": "fluorescence signal in tumor tissue sections of mice' lungs (two-photon confocal imaging)", "setting": "[3]", "value": "strong fluorescence signals"}, {"measurement": "solubility", "setting": "physchem", "value": 24, "unit": "µM"}]}, {"smiles": "COc1ccc2c(c1)c(CC(=O)NCCCCCCNc1ccc3c4c(cccc14)-c1nc4ccc([N+](=O)[O-])cc4nc1-3)c(C)n2C(=O)c1ccc(Cl)cc1", "note": "[Compound A5]", "values": [{"measurement": "fluorescence signal in HeLa cells (two-photon confocal imaging)", "setting": "HeLa cells", "value": "strong fluorescence signals"}, {"measurement": "fluorescence signal in non-tumor tissue sections of mice' lungs (two-photon confocal imaging)", "setting": "[2]", "value": "no any fluorescence signals"}, {"measurement": "fluorescence signal in tumor tissue sections of mice' lungs (two-photon confocal imaging)", "setting": "[3]", "value": "strong fluorescence signals"}, {"measurement": "fluorescence signal in HEK 293 cells (two-photon confocal imaging)", "setting": "HEK 293 cells", "value": "no any fluorescence signal"}]}]}
